These compounds were tested against T1, human CXCR3 (N-delta 4) (Homo sapiens, UniProt P49682) (assay: Human CXCR3 (N-delta 4) scintillation proximity assay (SPA), [125I] IP-10 binding to Ba/F3-hCXCR3 membranes). Conditions: IC50 rating; [125I] IP-10 displacement, human CXCR3; read-out: IC50.
T1 construct: CD8 leader (N); Flag tag; expressed in transfected cells; membrane preparation
T1 sequence (P49682 5-368 limits assumed): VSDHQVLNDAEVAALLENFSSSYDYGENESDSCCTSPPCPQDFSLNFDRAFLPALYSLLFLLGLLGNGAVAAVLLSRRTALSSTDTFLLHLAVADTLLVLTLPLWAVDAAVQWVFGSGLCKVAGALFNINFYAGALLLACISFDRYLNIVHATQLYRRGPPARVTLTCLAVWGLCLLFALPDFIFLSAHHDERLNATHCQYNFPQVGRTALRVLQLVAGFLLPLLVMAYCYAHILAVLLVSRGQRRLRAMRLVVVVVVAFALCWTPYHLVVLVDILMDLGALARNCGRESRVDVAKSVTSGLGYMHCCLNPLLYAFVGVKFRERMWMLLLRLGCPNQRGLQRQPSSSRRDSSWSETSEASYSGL
In short: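 Membranes from Ba/F3 cells expressing Flag-tagged hCXCR3 (N-delta 4), 2 μg/point, precoupled to WGA SPA beads. Binding of 25 pM [125I] IP-10 measured with titrated compounds, 3 hr at room temperature, in HEPES buffer with CaCl2, MgCl2, NaCl and 1.0% BSA; bound tracer read by scintillation counting.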
Work on CC[C@H]1CN(c2ncc(NC3=NS(=O)(=O)N=C3NC3CC3)cc2Cl)CCN1C1CCN(Cc2ccc(C(F)(F)F)cc2)CC1 [Compound 245] yielded an IC50 of less than 25 nM.
With CC[C@H]1CN(c2ncc(NC3=NS(=O)(=O)N=C3NCC3CC3)cc2Cl)CCN1C1CCN(Cc2ccc(Cl)cc2F)CC1 [Compound 246] the IC50 was less than 25 nM.
Work on CC[C@H]1CN(c2ncc(NC3=NS(=O)(=O)N=C3NC3CCC3)cc2Cl)CCN1C1CCN(Cc2ccc(Cl)cc2F)CC1 [Compound 247] yielded an IC50 of less than 25 nM.
For CC[C@H]1CN(c2ncc(NC3=NS(=O)(=O)N=C3NC3CC3)cc2Cl)CCN1C1CCN(Cc2ccc(C#N)cc2)CC1 [Compound 248], the IC50 was less than 25 nM.
For CC[C@H]1CN(c2ncc(NC3=NS(=O)(=O)N=C3NC3CC3)cc2Cl)CCN1C1CCN(Cc2ccc(Cl)cc2-c2ncon2)CC1 [Compound 249], the IC50 was less than 25 nM.
Compound CC[C@H]1CN(c2ncc(NC3=NS(=O)(=O)N=C3NC3CC3)cc2Cl)CCN1C1CCN(Cc2ccc(Cl)cc2-c2nnc[nH]2)CC1 [Compound 250] has an IC50 of less than 25 nM.
CC[C@H]1CN(c2ncc(NC3=NS(=O)(=O)N=C3NC3CC3)cc2Cl)CCN1C1CCN(Cc2ccc(F)c(F)c2)CC1 [Compound 251] showed an IC50 of less than 25 nM.
For CC[C@H]1CN(c2ncc(NC3=NS(=O)(=O)N=C3NCC(F)(F)F)cc2Cl)CCN1C1CCN(Cc2ccc(Cl)cc2F)CC1 [Compound 252], the IC50 was less than 25 nM.
For CC[C@H]1CN(c2ncc(NC3=NS(=O)(=O)N=C3NC[C@H](C)O)cc2Cl)CCN1C1CCN(Cc2ccc(Cl)cc2F)CC1 [Compound 253], the IC50 was less than 25 nM.
For CC[C@H]1CN(c2ncc(NC3=NS(=O)(=O)N=C3N3CCC3)cc2Cl)CCN1C1CCN(Cc2ccc(Cl)cc2F)CC1 [Compound 254], the IC50 was less than 25 nM.
In the case of CC[C@H]1CN(c2ncc(NC3=NS(=O)(=O)N=C3NC(C)(C)C)cc2Cl)CCN1C1CCN(Cc2ccc(Cl)cc2F)CC1 [Compound 255], the IC50 is reported as 25 to 100 nM.
In the case of CC[C@H]1CN(c2ncc(NC3=NS(=O)(=O)N=C3N(C)C)cc2Cl)CCN1C1CCN(Cc2ccc(Cl)cc2C(=N)NO)CC1 [Compound 256], the IC50 is reported as 25 to 100 nM.
For CC[C@H]1CN(c2ncc(NC3=NS(=O)(=O)N=C3NCCO)cc2Cl)CCN1C1CCN(Cc2ccc(F)c(F)c2)CC1 [Compound 257], the IC50 was 25 to 100 nM.
CC[C@H]1CN(c2ncc(NC3=NS(=O)(=O)N=C3NC[C@@H](C)O)cc2Cl)CCN1C1CCN(Cc2ccc(Cl)cc2F)CC1 [Compound 258] showed an IC50 of 25 to 100 nM.
Work on CC[C@H]1CN(c2ncc(NC3=NS(=O)(=O)N=C3N)cc2Cl)CCN1C1CCN(Cc2ccc(Cl)cc2F)CC1 [Compound 259] yielded an IC50 of 25 to 100 nM.
For CC[C@H]1CN(c2ncc(NC3=NS(=O)(=O)N=C3NC3CC3)cc2Cl)CCN1C1CCN(Cc2ccc(Cl)cc2C#N)CC1 [Compound 260], the IC50 was 25 to 100 nM.
CC[C@H]1CN(c2ncc(NC3=NS(=O)(=O)N=C3N3CCOCC3)cc2Cl)CCN1C1CCN(Cc2ccc(OC(F)(F)F)cc2)CC1 [Compound 261] gave an IC50 of 25 to 100 nM.
CC[C@H]1CN(c2ncc(NC3=NS(=O)(=O)N=C3N)cc2Cl)CCN1C1CCN(Cc2ccc(OC(F)(F)F)cc2)CC1 [Compound 262] showed an IC50 of 25 to 100 nM.
In the case of CC[C@H]1CN(c2ncc(NC3=NS(=O)(=O)N=C3NC)cc2Cl)CCN1C1CCN(Cc2ccc(Cl)cc2C#N)CC1 [Compound 263], the IC50 is reported as 25 to 100 nM.
CC[C@H]1CN(c2ncc(NC3=NS(=O)(=O)N=C3NCC(F)(F)F)cc2Cl)CCN1C1CCN(Cc2ccc(F)c(F)c2)CC1 [Compound 264] gave an IC50 greater than 100 nM.
Work on CC[C@H]1CN(c2ncc(NC3=NS(=O)(=O)N=C3N)cc2Cl)CCN1C1CCN(Cc2ccc(Cl)cc2-c2ncon2)CC1 [Compound 265] yielded an IC50 greater than 100 nM.
With CC[C@H]1CN(c2ncc(NC3=NS(=O)(=O)N=C3NC3CC3)cc2Cl)CCN1C1CCN(Cc2ccc(C#N)nc2)CC1 [Compound 266] the IC50 was greater than 100 nM.
CC[C@H]1CN(c2ncc(NC3=NS(=O)(=O)N=C3NC(C)(C)C)cc2Cl)CCN1C1CCN(Cc2ccc(Cl)cc2C#N)CC1 [Compound 267] gave an IC50 greater than 100 nM.
CC[C@H]1CN(c2ncc(NC3=NS(=O)(=O)N=C3N3CCC3)cc2Cl)CCN1C1CCN(Cc2ccc(F)c(F)c2)CC1 [Compound 268] showed an IC50 greater than 100 nM.
CC[C@H]1CN(c2ncc(NC3=NS(=O)(=O)N=C3N3CCOCC3)cc2Cl)CCN1C1CCN(Cc2ccc(F)c(F)c2)CC1 [Compound 269] gave an IC50 greater than 100 nM.
Compound CC[C@H]1CN(c2ncc(NC3=NS(=O)(=O)N=C3NC3CC3)cc2Cl)CCN1C1CCN(Cc2ccc(Cl)cc2-c2nnc(Br)[nH]2)CC1 [Compound 270] has an IC50 greater than 100 nM.
Work on CC[C@H]1CN(c2ncc(NC3=NS(=O)(=O)N=C3N(C)C)cc2Cl)CCN1C1CCN(Cc2ccc(OC(F)(F)F)cc2)CC1 [Compound 271] yielded an IC50 greater than 100 nM.
In the case of CC[C@H]1CN(c2ncc(NC3=NS(=O)(=O)N=C3N(C)C)cc2Cl)CCN1C1CCN(Cc2ccc(F)c(F)c2)CC1 [Compound 272], the IC50 is reported as greater than 100 nM.
With CCCCNC1=NS(=O)(=O)N=C1Nc1cnc(N2CCN(C3CCN(Cc4ccc(Cl)cc4C#N)CC3)[C@@H](CC)C2)c(Cl)c1 [Compound 273] the IC50 was greater than 100 nM.
Compound CC[C@H]1CN(c2ncc(NC3=NS(=O)(=O)N=C3NCCNS(C)(=O)=O)cc2Cl)CCN1C1CCN(Cc2ccc(Cl)cc2F)CC1 [Compound 274] has an IC50 greater than 100 nM.
In the case of CC[C@H]1CN(c2ncc(NC3=NS(=O)(=O)N=C3NC3CC3)cc2Cl)CCN1C1CCN(C(=O)c2ccc(Cl)cc2O)CC1 [Compound 275], the IC50 is reported as greater than 100 nM.
Work on CC[C@H]1CN(c2ncc(NC3=NS(=O)(=O)N=C3NC(CO)C(N)=O)cc2Cl)CCN1C1CCN(Cc2ccc(Cl)cc2F)CC1 (stereo partly drawn) [Compound 276] yielded an IC50 greater than 100 nM.
With CC[C@H]1CN(c2ncc(NC3=NS(=O)(=O)N=C3Nc3ccccc3O)cc2Cl)CCN1C1CCN(Cc2ccc(Cl)cc2F)CC1 [Compound 277] the IC50 was greater than 100 nM.
With CC[C@H]1CN(c2ncc(NC3=NS(=O)(=O)N=C3NCC(C)(C)C)cc2Cl)CCN1C1CCN(Cc2ccc(Cl)cc2C#N)CC1 [Compound 278] the IC50 was greater than 100 nM.
CC[C@H]1CN(c2ncc(NC3=NS(=O)(=O)N=C3NCCN)cc2Cl)CCN1C1CCN(Cc2ccc(Cl)cc2F)CC1 [Compound 279] was tested, and the IC50 was greater than 100 nM.
CC[C@H]1CN(c2ncc(NC3=NS(=O)(=O)N=C3NCC(=O)O)cc2Cl)CCN1C1CCN(Cc2ccc(Cl)cc2F)CC1 [Compound 280] showed an IC50 greater than 100 nM.

— patent US7566718B2, “Amine-linked pyridyl and phenyl substituted piperazine-piperidines with CXCR3 antagonist activity” (Schering Corporation, priority 2005, dated 2009)
